# Laboratory results from patent US10925874B2, “Substituted pyrazolopyrimidines as glucocerebrosidase activators” (The United States of America, as Represented by the …, priority 2010, dated 2021).
# What was measured:
# [1] = target: T1, N370S glucocerebrosidase from human spleen homogenate (Homo sapiens, UniProt P04062, N409S); test: qHTS fluorogenic enzyme assay for activators of N370S glucocerebrosidase (4-methylumbelliferyl-beta-D-glucopyranoside substrate); type: biochemical; details: pH 5.0, 37° C. 40 min
# T1 construct: N370S glucocerebrosidase from human spleen homogenate as the enzyme preparation; from tissue; host or cells: human spleen homogenate
# T1 sequence (P04062 40-536 N409S): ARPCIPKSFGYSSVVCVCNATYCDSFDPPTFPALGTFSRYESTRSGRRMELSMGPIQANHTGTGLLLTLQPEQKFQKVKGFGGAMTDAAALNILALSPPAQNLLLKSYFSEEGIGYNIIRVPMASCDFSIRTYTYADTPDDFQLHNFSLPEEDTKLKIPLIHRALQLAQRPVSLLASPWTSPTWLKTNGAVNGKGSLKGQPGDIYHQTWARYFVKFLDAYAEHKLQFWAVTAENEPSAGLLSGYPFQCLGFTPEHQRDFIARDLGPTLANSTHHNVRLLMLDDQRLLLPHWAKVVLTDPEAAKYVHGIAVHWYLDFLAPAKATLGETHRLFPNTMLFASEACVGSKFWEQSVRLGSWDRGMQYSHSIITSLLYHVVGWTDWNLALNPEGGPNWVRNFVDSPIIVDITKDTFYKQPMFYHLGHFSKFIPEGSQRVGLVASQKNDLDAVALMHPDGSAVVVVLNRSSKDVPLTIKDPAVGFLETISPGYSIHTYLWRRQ
# Excerpt: qHTS Assay for Inhibitors and Activators of N370S glucocerebrosidase as a Potential Chaperone Treatment of Gaucher Disease: Primary Screen Confirmation
# This is a fluorogenic enzyme assay with 4-methylumbelliferyl-beta-D-glucopyranoside as the substrate and N370S glucocerebrosidase from human spleen homogenate as the enzyme preparation. Upon the hydrolysis of this fluorogenic substrate, the resulting product, […] which can be detected by a standard fluorescence plate reader. Data were normalized to the controls for basal activity (without enzyme) and 100% activity (with enzyme). The AC50 values were determined from concentration-response data modeled with the standard Hill equation.
# Human spleen homogenate is prepared as follows by homogenizing spleen with assay buffer containing 50 mM citric acid (titrated with potassium phosphate to pH 5.0), 100 mM potassium chloride, 10 mM sodium chloride, 1 mM magnesium chloride, 0.01% Tween-20. The protein concentration of the human spleen homogenate is approximated 1.35 ug/ul.
# The assay is performed in 1536 well plates according to the following protocol. (1) 2 ul spleen homogenate ([…] final) is added to each well. (2) 23 nL test compound in DMSO solution is added to each well. The final concentration of compound in the test well is 0.5 nM to 58 uM. (3) 2 ul of substrate (1 mM final) are added to each well. (4) Incubate assay plates at 37° C. for 40 min. (5) Add 2 ul stop solution (1M NaOH and 1M Glycine mixture, pH 10) to each well. (6) Detect the assay plate in a ViewLux plate reader (PerkinElmer) using 365 nm excitation with emission at 440 nm.
# GCase = target: T2, GCase (Homo sapiens, UniProt P04062, N409S); test: Chaperone activity in N370S patient derived fibroblast (GCase/LAMP/DAPI staining); type: cell-based; details: NGC00188758-1 1 μM and 5 μM, isofagomine 1 μM, overlay of anti GCase R386 and LAMP stains
# T2 construct: evaluated in a N370S patient derived fibroblast for chaperone activity; endogenous in cells; host or cells: N370S Gaucher patient-derived fibroblasts
# T2 sequence (P04062 40-536 N409S): T1 sequence (P04062 40-536 N409S)
# Excerpt: GCase was visualized with red stain (anti GCase R386 antibody), lysosome with green (LAMP), and nucleus with blue (DAPI). […] All laser settings were held constant across all of the fields imaged.
SMILES,AC50 [1] [µM],GCase activity in the lysosome relative to vehicle control (GCase)
"C#Cc1ccc(NC(=O)c2cnn3c(C)cc(C)nc23)cc1 [NCGC00188758-01, N-(4-ethynylphenyl)-5,7-dimethylpyrazolo[1,5-a]pyrimidine-3-carboxamide]",0.366,significantly increased GCase activity in the lysosome
"COc1ccc(NC(=O)c2cnn3c(C)cc(C)nc23)c(OC)c1 [NCGC00188781-01, N-(2,4-dimethoxyphenyl)-5,7-dimethylpyrazolo[1,5-a]pyrimidine-3-carboxamide]",25.9,–
"Cc1cc(C)n2ncc(C(=O)Nc3ccc(C)c(Cl)c3)c2n1 [NCGC00188782-01, N-(3-chloro-4-methylphenyl)-5,7-dimethylpyrazolo[1,5-a]pyrimidine-3-carboxamide]",1.83,–
"Cc1cc(C)n2ncc(C(=O)Nc3ccc(C)c(C)c3)c2n1 [NCGC00188783-01, N-(3,4-dimethylphenyl)-5,7-dimethylpyrazolo[1,5-a]pyrimidine-3-carboxamide]",1.46,–
"CC(=O)c1ccc(NC(=O)c2cnn3c(C)cc(C)nc23)cc1 [NCGC00188784-01, N-(4-acetylphenyl)-5,7-dimethylpyraozlo[1,5-a]pyrimidine-3-carboxamide]",163,–
"CC(=O)c1cccc(NC(=O)c2cnn3c(C)cc(C)nc23)c1 [NCGC00188785-01, N-(3-acetylphenyl)-5,7-dimethylpyrazolo[1,5-a]pyrimidine-3-carboxamide]",32.6,–
"Cc1cc(C)n2ncc(C(=O)Nc3cccc(C(F)(F)F)c3)c2n1 [NCGC00188786-01, 5,7-dimethyl-N-(3-(trifluoromethyl)phenyl)pyrazolo[1,5-a]pyrimidine-3-carboxamide]",41.1,–
"Cc1cc(C)n2ncc(C(=O)Nc3ccc(C(F)(F)F)cc3)c2n1 [NCGC00188787-01, 5,7-dimethyl-N-(4-(trifluoromethyl)phenyl)pyrazolo[1,5-a]pyrimidine-3-carboxamide]",1.46,–
"Cc1cc(-c2ccccc2)nc2c(C(=O)NC3CCC(C(C)(C)C)CC3)cnn12 (stereo not drawn) [NCGC00229707-01, N-(4-tert-butylcyclohexyl)-7-methyl-5-phenylpyrazolo[1,5-a]pyrimidine-3-carboxamide]",5.8,–
"Cc1cc(-c2ccccc2)nc2c(C(=O)NC3CCC(C(C)(C)C)CC3)cnn12 (stereo not drawn) [NCGC00229708-01, N-(4-tert-butylcyclohexyl)-7-methyl-5-phenylpyrazolo[1,5-a]pyrimidine-3-carboxamide]",2.06,–
"Cc1cc(-c2ccccc2)n2ncc(C(=O)NC3CCC(C(C)(C)C)CC3)c2n1 (stereo not drawn) [NCGC0229711-01, N-(4-tert-butylcyclohexyl)-5-methyl-7-phenylpyrazolo[1,5-a]pyrimidine-3-carboxamide]",32.6,–
"Cc1cc(C)n2ncc(C(=O)Nc3ccccc3Sc3ccccc3)c2n1 [NCGC00229712-01, 5,7-dimethyl-N-(2-(phenylthio)phenyl)pyrazolo[1,5-a]pyrimidine-3-carboxamide]",18.3,–
"Cc1cc(C)n2ncc(C(=O)Nc3ccc(Cl)c(Cl)c3)c2n1 [NCGC00229713-01, N-(3,4-dichlorophenyl)-5,7-dimethylpyrazolo[1,5-a]pyrimidine-3-carboxamide]",3.66,–
"CCc1ccc(NC(=O)c2cnn3c(C)cc(-c4ccccc4)nc23)cc1 [NCGC00229714-01, N-(4-ethylphenyl)-7-methyl-5-phenylpyrazolo[1,5-a]pyrimidine-3-carboxamide]",13,–
"Cc1cc(-c2ccccc2)nc2c(C(=O)Nc3ccc(Cl)c(Cl)c3)cnn12 [NCGC00229715-01, N-(3,4-dichlorophenyl)-7-methyl-5-phenylpyrazolo[1,5-a]pyrimidine-3-carboxamide]",6.51,–
"Cc1cc(C)n2ncc(C(=O)Nc3cc(Cl)cc(Cl)c3)c2n1 [NCGC00229716-01, N-(3,5-dichlorophenyl)-5,7-dimethylpyrazolo[1,5-a]pyrimidine-3-carboxamide]",25.9,–
"CCc1ccc(NC(=O)c2cnn3c(-c4ccccc4)cc(C)nc23)cc1 [NCGC00229717-01, N-(4-ethylphenyl)-5-methyl-7-phenylpyrazolo[1,5-a]pyrimidine-3-carboxamide]",9.19,–
"Cc1ccc(NC(=O)c2cnn3c(-c4ccccc4)cc(C)nc23)cc1 [NCGC0229718-01, 5-methyl-7-phenyl-N-p-tolylpyrazolo[1,5-a]pyrimidine-3-carboxamide]",206,–
"Cc1cc(-c2ccccc2)nc2c(C(=O)Nc3ccc4c(c3)CCC4)cnn12 [NCGC00229719-01, N-(2,3-dihydro-1H-inden-5-yl)-7-methyl-5-phenylpyrazolo[1,5-a]pyrimidine-3-carboxamide]",8.19,–
"OC[C@H]1CNC[C@@H](O)[C@@H]1O [isofagomine, reference compound]",–,significantly increased GCase activity in the lysosome
